The structures appear in SMILES notation. Read-outs that look alike come from different tables or passages of the source. A value given as a limit tells only on which side of the number the result lay.

One experiment concerns the target T1, RORγ (UniProt P51449).
T1 sequence (P51449 1-518): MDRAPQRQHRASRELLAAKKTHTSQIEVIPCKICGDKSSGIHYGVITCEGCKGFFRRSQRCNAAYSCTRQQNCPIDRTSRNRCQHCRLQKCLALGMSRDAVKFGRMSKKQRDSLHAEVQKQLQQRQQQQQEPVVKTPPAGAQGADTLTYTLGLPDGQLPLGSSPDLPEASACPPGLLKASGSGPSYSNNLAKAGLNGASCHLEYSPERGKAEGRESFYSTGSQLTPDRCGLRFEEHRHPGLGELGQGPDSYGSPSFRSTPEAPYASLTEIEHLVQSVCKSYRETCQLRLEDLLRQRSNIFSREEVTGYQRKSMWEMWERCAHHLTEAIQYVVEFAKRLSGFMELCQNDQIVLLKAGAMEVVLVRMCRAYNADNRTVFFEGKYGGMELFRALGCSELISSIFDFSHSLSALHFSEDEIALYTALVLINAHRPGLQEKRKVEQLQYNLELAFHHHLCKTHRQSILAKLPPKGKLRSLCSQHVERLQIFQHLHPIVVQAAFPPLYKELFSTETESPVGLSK
The experiment is described as follows: RORγ Gal4 Reporter Gene Assay in 293T cells (firefly and renilla luciferase). In kind it is cell-based, human. Background: In a reporter assay the amount or activity of a reporter protein is the signal.

The target of experiment [1] is T2, RORγ ligand binding domain (LBD) (Homo sapiens, UniProt P51449).
T2 construct: made in house; host or cells: E. coli BL-21 (BL3), vector pDEST15
T2 sequence (P51449 269-508 limits assumed): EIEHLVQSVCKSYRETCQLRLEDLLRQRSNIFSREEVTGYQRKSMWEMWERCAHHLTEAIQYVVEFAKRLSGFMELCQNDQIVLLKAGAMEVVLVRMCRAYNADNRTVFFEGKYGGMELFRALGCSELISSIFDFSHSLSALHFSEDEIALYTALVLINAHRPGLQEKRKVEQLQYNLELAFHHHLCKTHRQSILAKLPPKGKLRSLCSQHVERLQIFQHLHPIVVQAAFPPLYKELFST
In words: TR-FRET Activity Assay (ligand sensing, RORγ-LBD / coactivator peptide interaction, LANCE). In kind it is biochemical.

Where [2] appears, read: second value of the cell, Gal4 reporter gene assay in 293T cells, firefly luciferase.
Where [3] appears, read: third value of the cell, Gal4 reporter gene assay in 293T cells, renilla normalised luciferase.
The mark [4] stands for this setting: first value of the cell FRET/FF/REN, TR-FRET activity assay, read-out: pIC50 (FRET) (converted).

In the case of `Cc1c(C(=O)NCC2(O)CCS(=O)(=O)CC2)cc(-c2cc(C(C)(C)C)c3c(c2)C2(CCO3)CC2)n1CC1CCCCC1` [17/81], at RORγ, the “pIC50 (FF)” value is 6.2/7.1/7.1 and the “pIC50 (REN)” value is on record as 6.2/7.1/7.1. The IC50 in experiment [1] is 631 nM.
In the case of `Cc1c(C(=O)NC2CCOCC2)cc(-c2ccc(C(=O)N(C)C)c(C(C)(C)C)c2)n1CC1CCCCC1` [6/5], the “pIC50 (FF)” value against RORγ (setting [2]) turned out to be 6.5. In addition, on RORγ (setting [3]), the “pIC50 (REN)” value amounted to 6.4. In experiment [1] (setting [4]), the IC50 was 2510 nM.
The corresponding values for `Cc1c(C(=O)NCC2(O)CCOCC2)cc(-c2cc(C(C)(C)C)c3c(c2)C(C)(C)C(=O)N3C)n1CC1CCCCC1` [17/48] are 7.6, 7.5 and 1000 nM.
For `Cc1c(C(=O)NCC(C)(C)O)cc(-c2ccc(S(=O)(=O)NC(C)(C)C)c3ccccc23)n1CC1CCCC(F)C1` (stereo not drawn) [17/370], in that order: 7.2, 7.3 and 2000 nM.
Take `CCN(C(C)(C)C)S(=O)(=O)c1ccc(-c2cc(C(=O)NC3COC3)c(C)n2CC2CCCCC2)cc1C(C)(C)C` [9/6]: on RORγ (setting [2]), the “pIC50 (FF)” value is recorded as 7.7. The “pIC50 (REN)” value on RORγ (setting [3]) turned out to be 7.8. Besides, in experiment [1] (setting [4]), the IC50 was 251 nM.
For `Cc1c(C(=O)NC2CCOCC2)cc(-c2ccc(S(=O)(=O)N3CCCC3(C)C)c(C(F)(F)F)c2)n1CC1CCCCC1` [17/84], in that order: 7.2, 7.2 and over 20000 nM.
Take `COCC(C)(C)NS(=O)(=O)c1ccc(-c2cc(C(=O)NC3CCOCC3)c(C)n2CC2CCCCC2)cc1C(F)(F)F` [17/109]: at RORγ, the “pIC50 (FF)” value is 6.2/7.2/7.3 and the “pIC50 (REN)” value was 6.2/7.2/7.3. The same molecule gave an IC50 in experiment [1] of 631 nM.
Turning to `Cc1c(C(=O)NC2CCOCC2)cc(-c2ccc(S(=O)(=O)NC3(C)COC3)c(C(F)(F)F)c2)n1CC1CCCCC1` [17/145], the “pIC50 (FF)” value on RORγ (setting [2]) was 7.6. Besides, the “pIC50 (REN)” value against RORγ (setting [3]) is 7.7. For the same molecule, the IC50 in experiment [1] (setting [4]) was 631 nM.
For the molecule `Cc1c(C(=O)NC[C@@H](C)O)cc(-c2cc(C(C)(C)C)cc(C(C)(C)C)c2)n1CC1CCCCC1` [1/59], the “pIC50 (FF)” value at RORγ (setting [2]) was 6.3. Also, the “pIC50 (REN)” value against RORγ (setting [3]) stood at 6.3. Also, the IC50 in experiment [1] (setting [4]) is 631 nM.
Turning to `Cc1c(C(=O)NCC(C)(C)C(=O)N(C)C)cc(-c2cc(C(C)(C)C)c3c(c2)C2(CCO3)CC2)n1CC1CCCCC1` [11/2], at RORγ (setting [2]), the “pIC50 (FF)” value was found to be 6.9. The “pIC50 (REN)” value against RORγ (setting [3]) was determined as 6.9. Also, the IC50 in experiment [1] (setting [4]) was 251 nM.
As for `Cc1c(C(=O)NC2COC2)cc(-c2cc(C(=O)NC(C)(C)C)cc(C(C)(C)C)c2)n1CC1CCCCC1` [15/5], at RORγ, the “pIC50 (FF)” value was 6.1/7.6/7.7 and the “pIC50 (REN)” value is recorded as 6.1/7.6/7.7. Also, the IC50 in experiment [1] is 794 nM.
Take `Cc1c(C(=O)N[C@H]2C[C@H](C(=O)O)C2)cc(-c2cc(C(C)(C)C)nc(C(C)(C)C)c2)n1CC1CCCCC1` [17/262]: on RORγ, the “pIC50 (FF)” value is 6.2/7.6/7.8 and the “pIC50 (REN)” value was 6.2/7.6/7.8. The molecule further had an IC50 in experiment [1] of 631 nM.
Regarding `COCc1c(C(=O)NC2CCOCC2)cc(-c2ccc(S(=O)(=O)NC(C)(C)C)c(C(C)(C)C)c2)n1CC1CCCCC1` [1/29], at RORγ, the “pIC50 (FF)” value is given as 6.2/7.2/7.2 and the “pIC50 (REN)” value is listed as 6.2/7.2/7.2. Moreover, the IC50 in experiment [1] was 631 nM.
Regarding `Cc1c(C(=O)NC2CCOCC2)cc(-c2ccc(S(=O)(=O)NC(C)(C)CF)c(C(F)(F)F)c2)n1CC1CCCCC1` [18/5], on RORγ, the “pIC50 (FF)” value is recorded as 6.2/7.5/7.5 and the “pIC50 (REN)” value was 6.2/7.5/7.5. Besides, in experiment [1], the IC50 is 631 nM.
In the case of `Cc1c(C(=O)NC2CCOCC2)cc(-c2cc(C(=O)NC(C)C)cc(C(C)(C)O)c2)n1CC1CCCCC1` [17/323], the “pIC50 (FF)” value at RORγ (setting [2]) is given as 5.6. For the same molecule, on RORγ (setting [3]), the “pIC50 (REN)” value was found to be 5.7. Also, the IC50 in experiment [1] (setting [4]) was 7940 nM.
The corresponding values for `Cc1c(C(=O)NC2COC2)cc(-c2cnc(OCC(C)(C)C)c(C(F)(F)F)c2)n1CC1CCCCC1` [9/13] are 6.0, 6.1 and 1000 nM.
On to `Cc1c(C(=O)N[C@H]2C[C@H](C(=O)O)C2)cc(-c2cc(C(=O)NC(C)(C)C)cc(C3(C)CC3)c2)n1CC1CCCCC1` [17/339], for which the “pIC50 (FF)” value at RORγ (setting [2]) was found to be 7.6. Also, the “pIC50 (REN)” value at RORγ (setting [3]) was 7.7. Further, the IC50 in experiment [1] (setting [4]) was 1260 nM.
For `Cc1c(C(=O)NC2CCOCC2)cc(-c2ccc(CN3CCOCC3)c(C(F)(F)F)c2)n1CC1CCCCC1` [Example 33, 1-(Cyclohexylmethyl)-2-methyl-5-(4-(morpholinomethyl)-3-(trifluoromethyl)phenyl)-N-(tetrahydro-2H-pyran-4-yl)-1H-pyrrole-3-carboxamide], in that order: 6.2, 6.3 and 3160 nM.
For `Cc1c(C(=O)NCC2(C(=O)O)CCOCC2)cc(-c2cc(C(C)(C)C)c3c(c2)C2(CCO3)CC2)n1CC1CCCCC1` [17/40], in that order: 6.9, 6.8 and 1260 nM.
Consider `Cc1c(C(=O)NCCCCCO)cc(-c2cc(C(C)(C)C)cc(C(C)(C)C)c2)n1CC1CCCCC1` [1/67], for which the “pIC50 (FF)” value at RORγ (setting [2]) came to 7.2. Moreover, the “pIC50 (REN)” value at RORγ (setting [3]) was 7.3. Further, in experiment [1] (setting [4]), the IC50 was 158 nM.
Turning to `Cc1c(C(=O)NCCC(C)(C)C(=O)O)cc(-c2ccc(S(=O)(=O)NC(C)(C)C)c3ccccc23)n1CC1CCCCC1` [17/241], on RORγ (setting [2]), the “pIC50 (FF)” value was determined as 7.7. At RORγ (setting [3]), the “pIC50 (REN)” value is given as 7.8. Further, in experiment [1] (setting [4]), the IC50 is 1260 nM.
As for `Cc1c(C(=O)NCC2(O)CCS(=O)(=O)CC2)cc(-c2cc(C(C)(C)O)cc(C3(C)CC3)c2)n1CC1CCCCC1` [17/319], the “pIC50 (FF)” value on RORγ (setting [2]) stood at 6.5. For the same molecule, the “pIC50 (REN)” value against RORγ (setting [3]) was 6.6. Moreover, the IC50 in experiment [1] (setting [4]) is 2000 nM.
The corresponding values for `Cc1c(C(=O)NCC2COC2)cc(-c2cc(C(C)(C)C)c3c(c2)C2(CCO3)CC2)n1CC1CCCCC1` [1/100] are 7.2, 7.2 and 251 nM.
Consider `Cc1c(C(=O)NCCN2CCN(S(C)(=O)=O)CC2)cc(-c2cc(C(C)(C)C)cc(C3(C)CC3)c2)n1CC1CCCCC1` [17/347], for which the “pIC50 (FF)” value against RORγ (setting [2]) stood at 6.5. Besides, the “pIC50 (REN)” value against RORγ (setting [3]) worked out at 6.5. In addition, the IC50 in experiment [1] (setting [4]) was 398 nM.
As for `Cc1c(C(=O)NCCCCC(=O)O)cc(-c2cc(C(C)(C)C)cc(C(C)(C)C)c2)n1CC1CCCCC1` [1/73], the “pIC50 (FF)” value at RORγ (setting [2]) was 7.2. Further, the “pIC50 (REN)” value at RORγ (setting [3]) was determined as 7.2. In experiment [1] (setting [4]), the IC50 is 1260 nM.
As for `Cc1c(C(=O)NC2C[S+]([O-])C2)cc(-c2cc(C(C)C)c3c(c2)C(C)(C)N(C(C)C)S3(=O)=O)n1CC1CCCCC1` (stereo not drawn) [2/3], the “pIC50 (FF)” value on RORγ (setting [2]) came out at 6.5. Moreover, on RORγ (setting [3]), the “pIC50 (REN)” value is 6.7. The IC50 in experiment [1] (setting [4]) was 1580 nM.
Turning to `Cc1c(C(=O)NCC(C)(C)NC(=O)CC2SC(=O)NC2=O)cc(-c2cc(C(C)(C)C)c3c(c2)C2(CCO3)CC2)n1CC1CCCCC1` (stereo not drawn) [17/35], the “pIC50 (FF)” value on RORγ (setting [2]) is 6.4. For the same molecule, the “pIC50 (REN)” value against RORγ (setting [3]) amounted to 6.3. Moreover, the IC50 in experiment [1] (setting [4]) was 1580 nM.
Turning to `Cc1c(C(=O)NCC2(CCO)COC2)cc(-c2cc(C(C)(C)C)cc(C(C)(C)C)c2)n1CC1CCCCC1` [17/44], on RORγ, the “pIC50 (FF)” value is recorded as 6.2/6.1/6.1 and the “pIC50 (REN)” value is reported as 6.2/6.1/6.1. The IC50 in experiment [1] is 631 nM.

For the origin of these results see patent US9815851B2, “Pyrrolo carboxamides as modulators of orphan nuclear receptor RAR-related orphan receptor-gamma (RORγ, NR1F3) activity and for the treatment of chronic inflammatory and autoimmune diseases” (PHENEX PHARMACEUTICALS AG, priority 2011, dated 2017).
